In ChEMBL document CHEMBL4765470 (J Med Chem, 2021):
Starred links: 1 amine or outer side, 2 acyl side, 3 side chain; linkers in the order of their positions; H or OH if unused. Non-standard residues stand in square brackets, D forms with d. Residues, ends and D or L forms follow the SMILES beside them. *: point of attachment. γ4hPhe = O=C(CC[C@H](Cc1ccccc1)N[*:1])[*:2]; 1Nal = N[C@@H](Cc1cccc2ccccc12)C(=O)O; 2Nal = N[C@@H](Cc1ccc2ccccc2c1)C(=O)O; αMeF = C[C@](N)(Cc1ccccc1)C(=O)O; β3hF = N[C@H](CC(=O)O)Cc1ccccc1; Cha = N[C@@H](CC1CCCCC1)C(=O)O; Tle = CC(C)(C)[C@H](N)C(=O)O; Nle = CCCC[C@H](N)C(=O)O; Ac5c = NC1(C(=O)O)CCCC1; Bn = c1ccc(C*)cc1

How the values were obtained:
Apelin receptor [1] = biological target: T1, Apelin receptor (Homo sapiens, UniProt P35414); experiment: Displacement of [125I] [NIe75, Tyr77]Pyr-apelin-13 from YFP-tagged human APJ receptor expressed in HEK293 cell membranes incubated for 1 hr by gamma counting based Cheng-Prusoff equation analysis
T1 sequence (P35414 whole entry): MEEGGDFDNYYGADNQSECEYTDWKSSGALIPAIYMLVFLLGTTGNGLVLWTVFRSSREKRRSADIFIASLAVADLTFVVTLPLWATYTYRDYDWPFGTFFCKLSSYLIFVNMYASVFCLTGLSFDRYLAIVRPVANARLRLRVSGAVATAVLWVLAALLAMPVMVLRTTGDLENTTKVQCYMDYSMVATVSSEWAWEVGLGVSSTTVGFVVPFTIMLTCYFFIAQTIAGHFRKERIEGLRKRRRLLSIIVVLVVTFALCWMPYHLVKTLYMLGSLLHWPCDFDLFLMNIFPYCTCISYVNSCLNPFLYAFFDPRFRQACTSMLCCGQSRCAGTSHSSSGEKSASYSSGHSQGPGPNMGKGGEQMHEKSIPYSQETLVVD

Apelin receptor [2] = biological target: T1, Apelin receptor; experiment: Agonist activity at human APJ receptor expressed in HEK293T cells co-expressing PDZ-Rho-Gef-RLucll assessed as induction of Galpha12 effector (PDZ-RhoGEF) to the cell membrane incubated for 5 mins by BRET assay; assay type: functional, cell-based
Apelin receptor [3] = biological target: T1, Apelin receptor; experiment: Agonist activity at human APJ receptor expressed in HEK293 cells co-expressing Rlucll-beta-arrestin2 assessed as induction of beta-arrestin2 recruitment to APJ incubated for 30 mins by BRET assay; assay type: cell-based
Apelin receptor [4] = biological target: T1, Apelin receptor; experiment: Agonist activity at human APJ receptor expressed in HEK293 cells co-expressing Galpha(i1)-RlucII(91) assessed as induction of dissociation of Galpha(i1) from G-beta-gamma subunits incubated for 5 mins by BRET assay; assay type: cell-based
[5] = biological target: T2, Apelin receptor (Homo sapiens) (UniProt P35414); experiment: Agonist activity at human APJ receptor expressed in HEK293 cells co-expressing […] assessed as induction of Galpha12 effector (PDZ-RhoGEF) to the cell membrane incubated for 5 mins by BRET assay relative to control; assay type: functional, cell-based; conditions: filed as agonist
T2 sequence (whole entry): T1 sequence (P35414 whole entry)

Compound	Ki (Apelin receptor [1])	EC50 (Apelin receptor [2])	EC50 (Apelin receptor [3])	EC50 (Apelin receptor [4])	Emax [5]
CCCC[C@H](N)C(=O)N1CCC[C@H]1C(=O)N[C@@H](CC(C)C)C(=O)N[C@@H](Cc1cnc[nH]1)C(=O)N[C@@H](CO)C(=O)N[C@@H](CCCNC(=N)N)C(=O)N[C@H](C(=O)N1CCC[C@H]1C(=O)N[C@H](CC(=O)O)Cc1ccccc1)C(C)C (H-[Nle]PLHSRVP[β3hF]-OH)	19 nM	740 nM	182 nM	5.1 nM	–
CCCC[C@H](N)C(=O)N1CCC[C@H]1C(=O)N[C@@](C)(Cc1ccccc1)C(=O)N[C@@H](Cc1cnc[nH]1)C(=O)N[C@@H](CO)C(=O)N[C@@H](CCCNC(=N)N)C(=O)N[C@H](C(=O)N1CCC[C@H]1C(=O)N[C@@H](Cc1ccccc1)C(=O)N1CCC[C@H]1C(=O)O)C(C)C (H-[Nle]P[αMeF]HSRVPFP-OH)	25 nM	515 nM	189 nM	6.4 nM	–
CCCC[C@H](N)C(=O)N1CCC[C@H]1C(=O)N[C@@H](CC(C)C)C(=O)N[C@@H](Cc1cnc[nH]1)C(=O)N[C@@H](CO)C(=O)N[C@@H](CCCNC(=N)N)C(=O)N[C@@H](Cc1ccccc1)C(=O)N1CCC[C@H]1C(=O)N[C@@H](Cc1ccccc1)C(=O)N1CCC[C@H]1C(=O)O (H-[Nle]PLHSRFPFP-OH)	18 nM	314 nM	533 nM	14 nM	–
CCCC[C@H](N)C(=O)N1CCC[C@H]1C(=O)N[C@@H](CC(C)C)C(=O)N[C@@H](Cc1cnc[nH]1)C(=O)N[C@@H](CO)C(=O)N[C@@H](CCCNC(=N)N)C(=O)N[C@H](C(=O)N1CCC[C@H]1C(=O)N[C@@H](Cc1ccccc1)C(=O)N[C@@H](Cc1ccc(OCc2ccccc2)cc1)C(=O)O)C(C)C (H-[Nle]PLHSRVPFY(Bn)-OH)	19 nM	1520 nM	381 nM	19 nM	–
CCCC[C@H](N)C(=O)N1CCC[C@H]1C(=O)N[C@@H](CC(C)C)C(=O)N[C@@H](Cc1cnc[nH]1)C(=O)N[C@@H](CO)C(=O)N[C@@H](CCCNC(=N)N)C(=O)N[C@H](C(=O)N1CCC[C@H]1C(=O)N[C@H](CCC(=O)O)Cc1ccccc1)C(C)C (H-[Nle]PLHSRVP-γ4hPhe)	8.9 nM	198 nM	175 nM	5.8 nM	–
CCCC[C@H](N)C(=O)N1CCC[C@H]1C(=O)N[C@@](C)(CC(C)C)C(=O)N[C@@H](Cc1cnc[nH]1)C(=O)N[C@@H](CO)C(=O)N[C@@H](CCCNC(=N)N)C(=O)N[C@H](C(=O)N1CCC[C@H]1C(=O)N[C@@H](Cc1ccccc1)C(=O)N1CCC[C@H]1C(=O)O)C(C)C	1.1 nM	74 nM	88 nM	1.1 nM	–
CCCC[C@H](N)C(=O)N1CCC[C@H]1C(=O)N[C@@H](CC(C)C)C(=O)N[C@@H](Cc1cnc[nH]1)C(=O)N[C@@H](CO)C(=O)N[C@@H](CCCNC(=N)N)C(=O)N[C@H](C(=O)N1CCC[C@H]1C(=O)N[C@@H](Cc1ccc2ccccc2c1)C(=O)N1CCC[C@H]1C(=O)O)C(C)C (H-[Nle]PLHSRVP[2Nal]P-OH)	16 nM	152 nM	155 nM	7 nM	–
CCCC[C@H](N)C(=O)N1CCC[C@H]1C(=O)N[C@@H](CC(C)C)C(=O)N[C@@H](Cc1cnc[nH]1)C(=O)N[C@@H](CO)C(=O)N[C@@H](CCCNC(=N)N)C(=O)N[C@H](C(=O)N1CCC[C@H]1C(=O)N[C@@H](CCc1ccccc1)C(=O)N1CCC[C@H]1C(=O)O)C(C)C	9.3 nM	128 nM	151 nM	4 nM	–
CCCC[C@H](N)C(=O)N1CCC[C@H]1C(=O)N[C@H](C(=O)N[C@@H](Cc1cnc[nH]1)C(=O)N[C@@H](CO)C(=O)N[C@@H](CCCNC(=N)N)C(=O)N[C@H](C(=O)N1CCC[C@H]1C(=O)N[C@@H](Cc1ccccc1)C(=O)N1CCC[C@H]1C(=O)O)C(C)C)C(C)(C)C (H-[Nle]P[Tle]HSRVPFP-OH)	21 nM	795 nM	401 nM	2.4 nM	–
CCCC[C@H](N)C(=O)N1CCC[C@H]1C(=O)N[C@@H](CC1CCCCC1)C(=O)N[C@@H](Cc1cnc[nH]1)C(=O)N[C@@H](CO)C(=O)N[C@@H](CCCNC(=N)N)C(=O)N[C@H](C(=O)N1CCC[C@H]1C(=O)N[C@@H](Cc1ccccc1)C(=O)N1CCC[C@H]1C(=O)O)C(C)C (H-[Nle]P[Cha]HSRVPFP-OH)	4 nM	94 nM	120 nM	2.8 nM	–
CCCC[C@H](N)C(=O)N1CCC[C@H]1C(=O)N[C@@H](CC(C)C)C(=O)N[C@@H](Cc1cnc[nH]1)C(=O)N[C@@H](CO)C(=O)N[C@@H](CCCNC(=N)N)C(=O)N[C@H](C(=O)N1CCC[C@H]1C(=O)N[C@@H](Cc1ccccc1)C(=O)N1C2CCCCC2C[C@H]1C(=O)O)C(C)C (stereo partly drawn)	5.1 nM	224 nM	172 nM	6.9 nM	–
CCCC[C@H](N)C(=O)N1CCC[C@H]1C(=O)N[C@@H](CC(C)C)C(=O)N[C@@H](Cc1cnc[nH]1)C(=O)N[C@@H](CO)C(=O)N[C@@H](CCCNC(=N)N)C(=O)N[C@H](C(=O)N1CCC[C@H]1C(=O)N[C@@H](Cc1cccc2ccccc12)C(=O)N1CCC[C@H]1C(=O)O)C(C)C (H-[Nle]PLHSRVP[1Nal]P-OH)	21 nM	1040 nM	537 nM	23 nM	–
CCCC[C@H](N)C(=O)N1CCC[C@H]1C(=O)NC1(C(=O)N[C@@H](Cc2cnc[nH]2)C(=O)N[C@@H](CO)C(=O)N[C@@H](CCCNC(=N)N)C(=O)N[C@H](C(=O)N2CCC[C@H]2C(=O)N[C@@H](Cc2ccccc2)C(=O)N2CCC[C@H]2C(=O)O)C(C)C)CCCC1 (H-[Nle]P[Ac5c]HSRVPFP-OH)	2.4 nM	70 nM	79 nM	1.2 nM	–
CCCC[C@H](N)C(=O)N1CCC[C@H]1C(=O)N[C@@H](CC(C)C)C(=O)N[C@@H](Cc1cnc[nH]1)C(=O)N[C@@H](CO)C(=O)N[C@@H](CCCNC(=N)N)C(=O)N[C@H](C(=O)N1CCC[C@H]1C(=O)N[C@@H](CC1CCCCC1)C(=O)N1CCC[C@H]1C(=O)O)C(C)C (H-[Nle]PLHSRVP[Cha]P-OH)	4 nM	54 nM	940 nM	17 nM	43%
CCCC[C@H](N)C(=O)N1CCC[C@H]1C(=O)N[C@@H](CC(C)C)C(=O)N[C@@H](Cc1cnc[nH]1)C(=O)N[C@@H](CO)C(=O)N[C@@H](CCCNC(=N)N)C(=O)N[C@H](C(=O)N1CCC[C@H]1C(=O)N[C@@H](Cc1ccccc1)C(=O)N[C@@H](CC(C)C)C(=O)O)C(C)C (H-[Nle]PLHSRVPFL-OH)	20 nM	525 nM	149 nM	4.6 nM	–
CCCC[C@H](N)C(=O)N1CCC[C@H]1C(=O)N[C@H](C(=O)N[C@@H](Cc1cnc[nH]1)C(=O)N[C@@H](CO)C(=O)N[C@@H](CCCNC(=N)N)C(=O)N[C@H](C(=O)N1CCC[C@H]1C(=O)N[C@@H](Cc1ccccc1)C(=O)N1CCC[C@H]1C(=O)O)C(C)C)[C@@H](C)CC (H-[Nle]PIHSRVPFP-OH)	16 nM	141 nM	370 nM	5.8 nM	–
CCCC[C@H](N)C(=O)N1CCC[C@H]1C(=O)N[C@@H](CC(C)C)C(=O)N[C@@H](Cc1cnc[nH]1)C(=O)N[C@@H](CO)C(=O)N[C@@H](CCCNC(=N)N)C(=O)N[C@H](C(=O)N1CCC[C@H]1C(=O)N[C@@H](Cc1ccccc1)C(=O)N[C@@H](Cc1cccc2ccccc12)C(=O)O)C(C)C (H-[Nle]PLHSRVPF[1Nal]-OH)	13 nM	30 nM	123 nM	4.5 nM	–
CCCC[C@H](N)C(=O)N1CCC[C@H]1C(=O)N[C@@H](CC(C)C)C(=O)N[C@@H](Cc1cnc[nH]1)C(=O)N[C@@H](CO)C(=O)N[C@@H](CCCNC(=N)N)C(=O)N[C@H](C(=O)N1CCC[C@H]1C(=O)N[C@@H](Cc1ccccc1)C(=O)N[C@@H](Cc1ccccc1)C(=O)O)C(C)C (H-[Nle]PLHSRVPFF-OH)	4 nM	43 nM	53 nM	2.3 nM	–
CCCC[C@H](N)C(=O)N1CCC[C@H]1C(=O)N[C@@H](CC(C)C)C(=O)N[C@@H](Cc1cnc[nH]1)C(=O)N[C@@H](CO)C(=O)N[C@@H](CCCNC(=N)N)C(=O)N[C@H](C(=O)N1CCC[C@H]1C(=O)N[C@@H](Cc1ccccc1)C(=O)N[C@@H](Cc1ccc2ccccc2c1)C(=O)O)C(C)C (H-[Nle]PLHSRVPF[2Nal]-OH)	3.9 nM	37 nM	107 nM	3.8 nM	–
CCCC[C@H](N)C(=O)N1CCC[C@H]1C(=O)N[C@@H](CC(C)C)C(=O)N[C@@H](Cc1ccc2ccccc2c1)C(=O)N[C@@H](CO)C(=O)N[C@@H](CCCNC(=N)N)C(=O)N[C@H](C(=O)N1CCC[C@H]1C(=O)N[C@@H](Cc1ccccc1)C(=O)N1CCC[C@H]1C(=O)O)C(C)C (H-[Nle]PL[2Nal]SRVPFP-OH)	> 10000 nM	–	–	–	–
